Measurements taken from US20110245249A1, “Heterocyclically Substituted Anilinopyrimidines” (Bayer CropScience AG, priority 2008, published 2011).

Assay: logP by HPLC on reversed-phase columns (EEC Directive 79/831 Annex V.A8)
Format: physicochemical
Settings: for log p [a]: pH 2.3
Method: The logP values were measured in accordance with EEC Directive 79/831 Annex V.A8 by HPLC (High Performance Liquid Chromatography) on reversed-phase columns (C 18) using the methods below:
[a] The determination was carried out in the acidic range at pH 2.3 using the mobile phases 0.1% aqueous phosphoric acid and acetronitrile linear gradient from 10% acetonitrile to 95% acetronitrile. [b] The LC-MS determination in the acid range was carried out at pH 2.7 using the mobile phases 0.1% aqueous formic acid and acetonitrile (contains 0.1% formic acid) linear gradient from 10% acetonitrile to 95% acetonitrile. [c] The LC-MS determination in the neutral range was carried out at pH 7.8 using the mobile phases 0.001 molar aqueous ammonium bicarbonate solution and acetonitrile linear gradient from 10% acetonitrile to 95% acetonitrile.

SMILES | log p [b] (pH 2.7) | log p [c] (pH 7.8) | other results
CC1(c2cccc(Nc3ncc(C(F)(F)F)c(NC4CC4)n3)c2)OCCCO1 [Example 48] | 3.29 | 3.64 | –
OCC1CSC(c2cccc(Nc3ncc(C(F)(F)F)c(NC4CC4)n3)c2)S1 (centres unmarked) [Example 168] | – | – | log p (pH 2.7): 2.65; log p (pH 7.8): 3.03
CC1(C)CCOC(c2cccc(Nc3ncc(Cl)c(NC4CC4)n3)c2)O1 (centres unmarked) [Example 100] | 2.22 | 3.57 | –
CC1(C)COC(c2cccc(Nc3ncc(C(F)(F)F)c(NC4CCC4)n3)c2)OC1 [Example 26] | 4.22 | 4.62 | –
CC1CC1Nc1nc(Nc2cccc(C3OCCO3)c2)ncc1Cl (centres unmarked) [Example 75] | – | 3.21[c] | –
C#CCNc1nc(Nc2cccc(C3OCCO3)c2)ncc1Cl [Example 134] | – | – | log p (pH 2.7): 1.58; log p (pH 7.8): 2.37
CC1COC(C)(c2cccc(Nc3ncc(C(F)(F)F)c(NC4CC4)n3)c2)O1 (centres unmarked) [Example 72] | 3.52 | 3.94 | –
CC1CC(C)OC(c2cccc(Nc3ncc(Cl)c(NC4CC4)n3)c2)O1 (centres unmarked) [Example 9] | 2.26 | 3.51 | –
O=Cc1cccc(Nc2ncc(I)c(NC3CC3)n2)c1 [3-{[4-(Cyclopropylamino)-5-iodopyrimidin-2-yl]amino}benzenecarbaldehyde] | – | – | chromatographic logP (pH 2.7, logP (pH 2.7)): 1.96
Brc1cnc(Nc2cccc(C3OCCCO3)c2)nc1NC1CC1 [Example 15] | – | 2.97 | –
COc1ccc(OCC2COC(c3cccc(Nc4ncc(Cl)c(NC5CC5)n4)c3)O2)cc1 (centres unmarked) [Example 36] | 2.64 | 3.78 | –
Clc1cnc(Nc2cccc(C3OCC(CBr)O3)c2)nc1NC1CC1 (centres unmarked) [Example 156] | – | – | log p (pH 2.7): 2.39; log p (pH 7.8): 3.48
O=Cc1cccc(Nc2ncc(Cl)c(NC3CC3)n2)c1 [3-{[5-Chloro-4-(cyclopropylamino)pyrimidin-2-yl]amino}benzenecarbaldehyde] | – | – | chromatographic logP (pH 2.7, logP (pH 2.7)): 1.82
CC(C)Nc1nc(Nc2cccc(C3OCCCO3)c2)ncc1Cl [Example 149] | – | – | log p (pH 2.7): 1.73; log p (pH 7.8): 3.2
CC1CC1Nc1nc(Nc2cccc(C3(C)OCCO3)c2)ncc1Cl (centres unmarked) [Example 76] | 2.32 | 3.67 | –
CCC(=O)c1cccc(Nc2ncc(Cl)c(NC3CC3)n2)c1 [1-(3-{[5-Chloro-4-(cyclopropylamino)pyrimidin-2-yl]amino}phenyl)propan-1-one] | – | – | chromatographic logP (pH 2.7, logP (pH 2.7)): 2.25
COCC1COC(c2cccc(Nc3ncc(Br)c(NC4CCC4)n3)c2)O1 (centres unmarked) [Example 115] | 2.19 | 3.61 | –
Fc1ccc(Nc2ncc(Br)c(NC3CC3)n2)cc1C1OCCCO1 [Example 145] | – | – | log p (pH 2.7): 2.01; log p (pH 7.8): 3.16
CCC1COC(c2cccc(Nc3ncc(C(F)(F)F)c(NC4CCC4)n3)c2)O1 (centres unmarked) [Example 113] | 4.06 | 4.56 | –
O=Cc1cccc(Nc2ncc(Cl)c(NC3CCC3)n2)c1 [3-{[5-Chloro-4-(cyclobutylamino)pyrimidin-2-yl]amino}benzenecarbaldehyde] | – | – | chromatographic logP (pH 2.7, logP (pH 2.7)): 2.16
CC1CC1Nc1nc(Nc2cccc(C=O)c2)ncc1Cl (centres unmarked) [3-((5-Chloro-4-[(2-methylcyclopropyl)amino]pyrimidin-2-yl)amino)benzaldehyde] | – | – | chromatographic logP (pH 2.3, logP (pH 2.3)): 2.11

SMILES | log p [b] (pH 2.7) | log p [c] (pH 7.8) | other results
CCC1(CO)COC(c2cccc(Nc3ncc(Cl)c(NC4CC4)n3)c2)OC1 (centres unmarked) [Example 159] | – | – | log p (pH 2.7): 1.82; log p (pH 7.8): 2.77
OCC1CSC(c2cccc(Nc3ncc(Br)c(NC4CC4)n3)c2)S1 (centres unmarked) [Example 166] | – | – | log p (pH 2.7): 1.89; log p (pH 7.8): 2.85
OCC1CSC(c2cccc(Nc3ncc(Br)c(NC4CCC4)n3)c2)S1 (centres unmarked) [Example 164] | – | – | log p (pH 2.7): 2.11; log p (pH 7.8): 3.28
FC(F)CNc1nc(Nc2cccc(C3OCCCO3)c2)ncc1Cl [Example 52] | 1.97[b] | 2.68 | log p [a]: 1.6
COCC1COC(c2cccc(Nc3ncc(Cl)c(NC4CCC4)n3)c2)O1 (centres unmarked) [Example 114] | 2.09 | 3.42 | –
Clc1cnc(Nc2cccc(C3OCC4(CC4)CO3)c2)nc1NC1CC1 [Example 123] | 2.09 | 3.32 | –
CC(C)(C)C1CCOC(c2cccc(Nc3ncc(Br)c(NC4CC4)n3)c2)O1 (centres unmarked) [Example 120] | 3.34 | 4.7 | –
Clc1ccc(Nc2ncc(Cl)c(NC3CC3)n2)cc1C1OCCO1 [Example 50] | 2.31 | 3.28 | –
C=C1COC(c2cccc(Nc3ncc(Cl)c(NC4CCC4)n3)c2)OC1 [Example 91] | – | 3.73[c] | –
CC1COC(c2cccc(Nc3ncc(C(F)(F)F)c(NC4CC4)n3)c2)O1 (centres unmarked) [Example 83] | 2.94[b] | 3.45 | log p [a]: 2.44
O=Cc1cccc(Nc2ncc(Cl)c(NCC3CC3)n2)c1 [3-({5-Chloro-4-[(cyclopropylmethyl)amino]pyrimidin-2-yl}amino)benzenecarbaldehyde] | – | – | chromatographic logP (pH 2.7, logP (pH 2.7)): 1.94
Fc1ccc(Nc2ncc(Br)c(NC3CC3)n2)cc1C1OCCO1 [Example 141] | – | – | log p (pH 2.7): 1.89; log p (pH 7.8): 2.98
Clc1cnc(Nc2cccc(C3OCCC(c4ccccc4)O3)c2)nc1NC1CC1 (centres unmarked) [Example 94] | 2.83 | 4.11 | –
Clc1cnc(Nc2cccc(C3OCC4(CCC4)CO3)c2)nc1NC1CC1 [Example 103] | 2.6 | 3.62 | –
CCC1(c2cccc(Nc3ncc(Cl)c(NC4CC4)n3)c2)OCC(C)O1 (centres unmarked) [Example 74] | 2.67 | 4.1 | –
CC1(c2cccc(Nc3ncc(C(F)(F)F)c(NC4CCC4)n3)c2)OCCCO1 [Example 69] | 3.81 | 4.24 | –
CCOC(OCC)c1cccc(Nc2ncc(Cl)c(NC3CC3)n2)c1 [Example 64] | 2.58 | 3.86 | –
FC(F)(F)c1cnc(Nc2cccc(C3OC4COCC4O3)c2)nc1NC1CCC1 (centres unmarked) [Example 112] | 2.79 | 3.37 | –
Fc1cnc(Nc2cccc(C3OCCCO3)c2)nc1NC1CC1 [Example 51] | 1.28[b] | 2.4 | log p [a]: 1.23
COc1ccc(Nc2ncc(Br)c(NC3CC3)n2)cc1C1OCCO1 [Example 138] | – | – | log p (pH 2.7): 1.5; log p (pH 7.8): 2.7
COCC(C)Nc1nc(Nc2cccc(C3OCCO3)c2)ncc1Cl (centres unmarked) [Example 61] | 1.62[b] | – | –

SMILES | log p [b] (pH 2.7) | log p [c] (pH 7.8) | other results
O=Cc1cccc(Nc2ncc(F)c(NC3CC3)n2)c1 [3-{[4-(Cyclopropylamino)-5-fluoropyrimidin-2-yl]amino}benzenecarbaldehyde] | – | – | chromatographic logP (pH 2.7, logP (pH 2.7)): 1.26
CC1(C)COC(C)(c2cccc(Nc3ncc(C(F)(F)F)c(NC4CC4)n3)c2)OC1 [Example 73] | 4.32 | 4.7 | –
CC1COC(c2cccc(Nc3ncc(Cl)c(NC4CC4)n3)c2)O1 (centres unmarked) [Example 8] | 1.9[b] | – | –
CC(C)Nc1nc(Nc2cccc(C3OCCO3)c2)ncc1Cl [Example 148] | – | – | log p (pH 2.7): 1.7; log p (pH 7.8): 3.04
CCC1COC(c2cccc(Nc3ncc(C(F)(F)F)c(NC4CC4)n3)c2)O1 (centres unmarked) [Example 88] | 3.48 | 3.9 | –
FC(F)(F)c1cnc(Nc2cccc(C3OCCCO3)c2)nc1NC1CC1 [Example 153] | – | – | log p (pH 2.7): 2.71[b]
Brc1cnc(Nc2cccc(C3OC4COCC4O3)c2)nc1NC1CC1 (centres unmarked) [Example 110] | – | 2.66[c] | –
COc1ccc(Nc2ncc(C(F)(F)F)c(NC3CC3)n2)cc1C1OCCCO1 [Example 136] | – | – | log p (pH 2.7): 2.38; log p (pH 7.8): 3.18
Brc1cnc(Nc2cccc(C3OC4COCC4O3)c2)nc1NC1CCC1 (centres unmarked) [Example 119] | 1.91 | 3.23 | –
CC1COC(c2cccc(Nc3ncc(Br)c(NC4CC4)n3)c2)O1 (centres unmarked) [Example 84] | 2.03 | 3.25 | –
CCN(CC)CC1COC(c2cccc(Nc3ncc(Cl)c(NC4CC4)n3)c2)O1 (centres unmarked) [Example 40, 5-Chloro-N^4-cyclopropyl-N^2-(3-{4-[(diethylamino)methyl]-1,3-dioxolan-2-yl}phenyl)-pyrimidine-2,4-diamine] | – | – | chromatographic logP (pH 2.7, log p [b]): 1.07; chromatographic logP (pH 2.7, logP (pH 2.7)): 1.05; chromatographic logP (pH 7.8, log p [c]): 3.9
COCC1COC(c2cccc(Nc3ncc(C(F)(F)F)c(NC4CC4C)n3)c2)O1 (centres unmarked) [Example 130] | – | – | log p (pH 2.7): 3.18; log p (pH 7.8): 3.7
Fc1ccc(Nc2ncc(Cl)c(NC3CC3)n2)cc1C1OCCO1 [Example 128] | 1.75 | 2.88 | –
FC(F)(F)c1cnc(Nc2cccc(C3OC4COCC4O3)c2)nc1NC1CC1 (centres unmarked) [Example 111] | – | 2.87 | log p [a]: 1.94
CC1CC1Nc1nc(Nc2cccc(C3OCCCO3)c2)ncc1Br (centres unmarked) [Example 133] | – | – | log p (pH 2.7): 2.18; log p (pH 7.8): 3.53
Ic1cnc(Nc2cccc(C3OCCO3)c2)nc1NC1CC1 [Example 49] | 1.75 | 3.02 | –
CC1COC(c2cccc(Nc3ncc(Br)c(NC4CCC4)n3)c2)O1 (centres unmarked) [Example 85] | 2.39 | 3.84 | –
Ic1cnc(Nc2cccc(C3OCCCO3)c2)nc1NC1CC1 [Example 57] | 2.23[b] | 3.18 | log p [a]: 1.6
C#CCNc1nc(Nc2cccc(C=O)c2)ncc1Cl [3-{[5-Chloro-4-(prop-2-yn-1-ylamino)pyrimidin-2-yl]amino}benzenecarbaldehyde] | – | – | chromatographic logP (pH 2.7, logP (pH 2.7)): 1.74
Fc1ccc(Nc2ncc(Br)c(NC3CCC3)n2)cc1C1OCCO1 [Example 142] | – | – | log p (pH 2.7): 2.22; log p (pH 7.8): 3.55
CC1CC1Nc1nc(Nc2cccc(C3OCCO3)c2)ncc1C(F)(F)F (centres unmarked) [Example 129] | 3.03 | 3.58 | –
